Data set [1] deals with T1, Human immunodeficiency virus type 1 integrase (Human immunodeficiency virus 1, UniProt Q7ZJM1). Briefly: Inhibition of LEDGF/p75-independant HIV1 His/FLAG-tagged integrase expressed in Escherichia coli BL21(DE3) by HTRF assay. (In TR-FRET formats the signal depends on donor and acceptor labels being close together.)
Data set [2] is described as follows: Stability of the compound at 60 degC for 17 hrs by 1H NMR analysis. The class given is physicochemical.
Data set [3] is described as follows: Drug metabolism in DMSO d6 at 100 degC for 3 days by 1H NMR analysis.
In data set [4] the target is T1, Human immunodeficiency virus type 1 integrase. Briefly: Inhibition of biotinylated-TAR-RNA binding to HIV1 His6-tagged integrase expressed in Escherichia coli BL21(DE3) preincubated for 2 hrs followed by RNA addition and measured after 2 hrs by Alpha screen assay. (Alpha assays give light when donor and acceptor beads are brought close together.)
Data set [5] shares this target. Briefly: Inhibition of LEDGF/p75 binding to HIV1 His/FLAG-tagged integrase expressed in Escherichia coli BL21(DE3) by HTRF assay.
The subject of data set [6] is Human immunodeficiency virus 1. Briefly: Antiviral activity against HIV-1 NL4-3 harboring wild-type integrase infected in human HeLa TZM-bl cells after 48 hrs by p24 ELISA. Type of data set: functional, organism-based. As to conditions: Human immunodeficiency virus 1, NL4-3, 48 h.
For data set [7], the target named is T1, Human immunodeficiency virus type 1 integrase. The data set can be described thus: Induction of HIV1 His/FLAG-tagged integrase hyper-multimerization expressed in Escherichia coli BL21(DE3) by HTRF assay.
The target is the same in data set [8]. The data set can be described thus: Inhibition of LEDGF/p75-dependant HIV1 His/FLAG-tagged integrase expressed in Escherichia coli BL21(DE3) by HTRF assay.
Data set [9] concerns Human immunodeficiency virus 1. Briefly: Antiviral activity against HIV-1 NL4-3 harboring integrase A128T mutant infected in human HeLa TZM-bl cells after 48 hrs by p24 ELISA. The class given is functional, organism-based. As to conditions: Human immunodeficiency virus 1, NL4-3, 48 h.
Data set [10] is described as follows: Drug level treated with 2-(1-(biphenyl-4-yl)-3-(chroman-6-yl)isoquinolin-4-yl)-2-tert-butoxyacetic acid at 100 degC for 17 days by HSQC NMR analysis. Type of data set: physicochemical. As to conditions: 408 h.
A short description of data set [11]: Drug level treated with 2-(1-(biphenyl-4-yl)-3-(chroman-6-yl)isoquinolin-4-yl)-2-tert-butoxyacetic acid at 100 degC for 17 days by 1H NMR analysis. The class given is physicochemical. As to conditions: 408 h.
A short description of data set [12]: Drug metabolism assessed as 1-([1,1'-biphenyl]-4-yl)-3-(chroman-6-yl)isoquinoline-4-carbaldehyde formation at 100 degC for 17 days by HSQC NMR analysis.
Data set [13] can be described thus: Drug metabolism assessed as 1-([1,1'-biphenyl]-4-yl)-3-(chroman-6-yl)isoquinoline-4-carbaldehyde formation at 100 degC for 17 days by 1H NMR analysis.

In general, IC50 refers to the concentration that inhibits the measured activity by half. Read a high IC50 as lower potency. By EC50 is commonly meant the concentration that produces a half-maximal response. A high value points to lower potency in that assay.

A value given as a limit tells only on which side of the number the result lay.

T1 sequence (Q7ZJM1 whole entry): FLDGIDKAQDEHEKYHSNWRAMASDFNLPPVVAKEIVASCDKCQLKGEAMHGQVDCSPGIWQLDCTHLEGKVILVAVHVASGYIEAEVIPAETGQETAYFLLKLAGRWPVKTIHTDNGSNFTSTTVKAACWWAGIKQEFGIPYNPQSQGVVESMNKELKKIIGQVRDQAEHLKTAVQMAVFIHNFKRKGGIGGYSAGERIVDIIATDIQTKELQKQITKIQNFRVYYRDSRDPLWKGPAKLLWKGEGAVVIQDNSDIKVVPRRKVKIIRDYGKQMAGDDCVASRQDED

For `COc1ccc(-c2nc(-c3ccc4c(c3)CCCO4)c(C(OC(C)(C)C)C(=O)O)c3ccccc23)cc1` (stereo not given), in [1], 1000 nM corresponded to half-maximal inhibition (IC50).

As to `CC(C)(C)OC(C(=O)O)c1c(-c2ccc3c(c2)CCCO3)nc(-c2ccco2)c2ccccc12` (stereo not given), in data set [1], the IC50 stood at 3550 nM.

With `COc1cccc(-c2nc(-c3ccc4c(c3)CCCO4)c(C(OC(C)(C)C)C(=O)O)c3ccccc23)c1` (stereo not given), the IC50 in data set [1] stood at 1140 nM. For the same molecule, the Stability result in [2] was “Stable”. The Drug metabolism result in data set [3] is “Metabolite detected”.

Molecule `CC(C)(C)OC(C(=O)O)c1c(-c2ccc3c(c2)CCCO3)nc(-c2ccc3c(c2)CCCO3)c2ccccc12` (stereo not given) showed an IC50 in data set [1] of 1220 nM.

For the molecule `CC(C)(C)OC(C(=O)O)c1c(-c2ccccc2)nc(-c2ccccc2)c2ccccc12` (stereo not given), the IC50 in [1] came out at 10100 nM.

Take `CC(C)(C)OC(C(=O)O)c1c(-c2ccc3c(c2)CCCO3)nc(-c2cccc(C(=O)O)c2)c2ccccc12` (stereo not given): it took 12300 nM to reach half-maximal inhibition in [1] (IC50).

As to `COc1cccc(-c2nc(-c3ccccc3)c(C(OC(C)(C)C)C(=O)O)c3ccccc23)c1` (stereo not given), half-maximal inhibition in data set [1] (IC50) was put at 13800 nM.

`CC(C)(C)OC(C(=O)O)c1c(-c2ccc3c(c2)CCCO3)nc(-c2cccc(F)c2)c2ccccc12` (stereo not given) had an IC50 in [1] of 12900 nM. In [2], the Stability entry is given as “Stable”. Besides, the Drug metabolism entry in [3] is reported as “Metabolite detected”.

Turning to `CC(C)(C)OC(C(=O)O)c1c(-c2ccc3c(c2)CCCO3)nc(-c2cnn(Cc3ccccc3)c2)c2ccccc12` (stereo not given), the IC50 turned out to be 480 nM in data set [1], 210 nM in data set [4], 36700 nM in data set [5] and 23400 nM in data set [8]. The EC50 was 1100 nM in data set [6], below 1790 nM in [7] and 730 nM in [9].

Take `O=Cc1c(-c2ccc3c(c2)CCCO3)nc(-c2ccc(-c3ccccc3)cc2)c2ccccc12`: the Drug metabolism entry in [10] and in data set [11] was “Metabolite_Detected” throughout.

Take `Cc1nc2ccc(Br)cc2c(-c2ccc(Cl)cc2)c1C(OC(C)(C)C)C(=O)O` (stereo not given): the IC50 in [1] amounted to 120 nM; in data set [4] it was 136 nM; in data set [5], 150 nM; in [8], 150 nM. In addition, the values for the EC50 in data set [6], in data set [7] and in data set [9] were 630 nM, 146 nM and 12200 nM, respectively.

On to `CC(C)(C)OC(C(=O)O)c1c(-c2ccc3c(c2)CCCO3)nc(-c2ccccc2)c2ccccc12` (stereo not given), for which, in data set [1], it took 4650 nM to reach half-maximal inhibition (IC50).

Consider `CC(C)(C)OC(C(=O)O)c1c(-c2ccc3c(c2)CCCO3)nc(-c2ccc(C(F)(F)F)cc2)c2ccccc12` (stereo not given), for which the IC50 in data set [1] was 7640 nM.

`CC(C)(C)OC(C(=O)O)c1c(-c2ccc3c(c2)CCCO3)nc(-c2nc3cc(Cl)ccc3[nH]2)c2ccccc12` (stereo not given) displayed a half-inhibitory concentration (IC50) in data set [1] of 810 nM.

In [1], `CC(C)(C)OC(C(=O)O)c1c(-c2ccc3c(c2)CCCO3)nc(-c2ccc(-c3ccccc3)cc2)c2ccccc12` (stereo not given) returned an IC50 of 830 nM. Also, the Stability result in data set [2] is “Stable”. For the same molecule, the Drug metabolism entry in data set [12] and in [13] was “Metabolite detected” in each case.

For the origin of these results see ChEMBL document CHEMBL4330186, “An Isoquinoline Scaffold as a Novel Class of Allosteric HIV-1 Integrase Inhibitors” (ACS Med Chem Lett, 2019).
